Assay results as given in the CheMixHub viscosity set.

Assay: xn = mol fraction of the nth substance listed

CC#N + O
Settings	viscosity [mPa·s]
293.15 K, 101 kPa, x1 = 0.032	1.095
293.15 K, 101 kPa, x1 = 0.057	1.11
293.15 K, 101 kPa, x1 = 0.097	1.103
293.15 K, 101 kPa, x1 = 0.154	1.023
293.15 K, 101 kPa, x1 = 0.2	0.963
293.15 K, 101 kPa, x1 = 0.395	0.723
293.15 K, 101 kPa, x1 = 0.596	0.516
293.15 K, 101 kPa, x1 = 0.8	0.413
293.15 K, 101.33 kPa, x1 = 0.03	1.091
293.15 K, 101.33 kPa, x1 = 0.06	1.124
293.15 K, 101.33 kPa, x1 = 0.12	1.105
293.15 K, 101.33 kPa, x1 = 0.22	1.029
293.15 K, 101.33 kPa, x1 = 0.29	0.9338
293.15 K, 101.33 kPa, x1 = 0.37	0.7979
293.15 K, 101.33 kPa, x1 = 0.43	0.722
293.15 K, 101.33 kPa, x1 = 0.61	0.5948
293.15 K, 101.33 kPa, x1 = 0.7	0.5389
293.15 K, 101.33 kPa, x1 = 0.87	0.4657
298.15 K, 101 kPa, x1 = 0.046	0.867
298.15 K, 101 kPa, x1 = 0.1	0.862
298.15 K, 101 kPa, x1 = 0.2	0.858
298.15 K, 101 kPa, x2 = 0.2626	0.42
298.15 K, 101 kPa, x2 = 0.4466	0.517
298.15 K, 101 kPa, x2 = 0.4952	0.554
298.15 K, 101 kPa, x2 = 0.6032	0.651
298.15 K, 101 kPa, x2 = 0.613	0.66
298.15 K, 101 kPa, x2 = 0.6508	0.669
298.15 K, 101 kPa, x2 = 0.7029	0.754
298.15 K, 101 kPa, x2 = 0.7445	0.801
298.15 K, 101 kPa, x2 = 0.7543	0.815
298.15 K, 101.3 kPa, x1 = 0.025	0.9497
298.15 K, 101.3 kPa, x1 = 0.05	0.9779
298.15 K, 101.3 kPa, x1 = 0.075	0.9826
298.15 K, 101.3 kPa, x1 = 0.1	0.9704
298.15 K, 101.3 kPa, x1 = 0.2019	0.8706
298.15 K, 101.33 kPa, x2 = 0.1028	0.375
298.15 K, 101.33 kPa, x2 = 0.2071	0.402
298.15 K, 101.33 kPa, x2 = 0.297	0.436
298.15 K, 101.33 kPa, x2 = 0.4021	0.495
298.15 K, 101.33 kPa, x2 = 0.4985	0.563
298.15 K, 101.33 kPa, x2 = 0.6057	0.656
298.15 K, 101.33 kPa, x2 = 0.6987	0.75
298.15 K, 101.33 kPa, x2 = 0.7843	0.842
298.15 K, 101.33 kPa, x2 = 0.8773	0.94
303.15 K, 101 kPa, x1 = 0.032	0.861
303.15 K, 101 kPa, x1 = 0.0498	0.8684
303.15 K, 101 kPa, x1 = 0.057	0.872
303.15 K, 101 kPa, x1 = 0.065	0.8736
303.15 K, 101 kPa, x1 = 0.084	0.8728
303.15 K, 101 kPa, x1 = 0.097	0.868
303.15 K, 101 kPa, x1 = 0.1498	0.8314
303.15 K, 101 kPa, x1 = 0.154	0.815
303.15 K, 101 kPa, x1 = 0.2	0.774
303.15 K, 101 kPa, x1 = 0.2534	0.7376
303.15 K, 101 kPa, x1 = 0.3831	0.6065
303.15 K, 101 kPa, x1 = 0.395	0.607
303.15 K, 101 kPa, x1 = 0.5071	0.5088
303.15 K, 101 kPa, x1 = 0.596	0.449
303.15 K, 101 kPa, x1 = 0.6075	0.4532
303.15 K, 101 kPa, x1 = 0.7039	0.4039
303.15 K, 101 kPa, x1 = 0.8	0.372
303.15 K, 101 kPa, x1 = 0.8042	0.3676
303.15 K, 101 kPa, x1 = 0.894	0.3442
308.15 K, 101 kPa, x1 = 0.046	0.707
308.15 K, 101 kPa, x1 = 0.0498	0.7729
308.15 K, 101 kPa, x1 = 0.065	0.7826
308.15 K, 101 kPa, x1 = 0.084	0.7812
308.15 K, 101 kPa, x1 = 0.1	0.705
308.15 K, 101 kPa, x1 = 0.1498	0.7485
308.15 K, 101 kPa, x1 = 0.2	0.697
308.15 K, 101 kPa, x1 = 0.2534	0.67
308.15 K, 101 kPa, x1 = 0.3831	0.5596
308.15 K, 101 kPa, x1 = 0.5071	0.4711
308.15 K, 101 kPa, x1 = 0.6075	0.4236
308.15 K, 101 kPa, x1 = 0.7039	0.3804
308.15 K, 101 kPa, x1 = 0.8042	0.3486
308.15 K, 101 kPa, x1 = 0.894	0.3278
313.15 K, 101 kPa, x1 = 0.032	0.698
313.15 K, 101 kPa, x1 = 0.0498	0.6998
313.15 K, 101 kPa, x1 = 0.057	0.707
313.15 K, 101 kPa, x1 = 0.065	0.7058
313.15 K, 101 kPa, x1 = 0.084	0.7062
313.15 K, 101 kPa, x1 = 0.097	0.707
313.15 K, 101 kPa, x1 = 0.1498	0.6782
313.15 K, 101 kPa, x1 = 0.154	0.668
313.15 K, 101 kPa, x1 = 0.2	0.641
313.15 K, 101 kPa, x1 = 0.2534	0.612
313.15 K, 101 kPa, x1 = 0.3831	0.5157
313.15 K, 101 kPa, x1 = 0.395	0.516
313.15 K, 101 kPa, x1 = 0.5071	0.441
313.15 K, 101 kPa, x1 = 0.596	0.399
313.15 K, 101 kPa, x1 = 0.6075	0.3978
313.15 K, 101 kPa, x1 = 0.7039	0.3598
313.15 K, 101 kPa, x1 = 0.8	0.34
313.15 K, 101 kPa, x1 = 0.8042	0.3318
313.15 K, 101 kPa, x1 = 0.894	0.3132
318.15 K, 101 kPa, x1 = 0.046	0.584
318.15 K, 101 kPa, x1 = 0.0498	0.635
318.15 K, 101 kPa, x1 = 0.065	0.6402
318.15 K, 101 kPa, x1 = 0.084	0.6409
318.15 K, 101 kPa, x1 = 0.1	0.58
318.15 K, 101 kPa, x1 = 0.1498	0.6185
318.15 K, 101 kPa, x1 = 0.2	0.578
318.15 K, 101 kPa, x1 = 0.2534	0.5635
318.15 K, 101 kPa, x1 = 0.3831	0.4801
318.15 K, 101 kPa, x1 = 0.5071	0.4101
318.15 K, 101 kPa, x1 = 0.6075	0.3754
318.15 K, 101 kPa, x1 = 0.7039	0.3408
318.15 K, 101 kPa, x1 = 0.894	0.2996
323.15 K, 101 kPa, x1 = 0.032	0.579
323.15 K, 101 kPa, x1 = 0.0498	0.5802
323.15 K, 101 kPa, x1 = 0.057	0.587
323.15 K, 101 kPa, x1 = 0.097	0.589
323.15 K, 101 kPa, x1 = 0.154	0.561
323.15 K, 101 kPa, x1 = 0.2	0.54
323.15 K, 101 kPa, x1 = 0.395	0.447
323.15 K, 101 kPa, x1 = 0.596	0.356
323.15 K, 101 kPa, x1 = 0.8	0.312
